The values below come from US20080214509A1, “Methods for enhancing the efficacy of vascular disrupting agents” (priority 2007, published 2008).

One experiment deals with CEPs. The experiment is described as follows: Circulating endothelial progenitor cell (CEP) levels in peripheral blood by flow cytometry, non-tumor bearing mice. The class given is in vivo. To be noted: non-tumor bearing Balb/c mice; AMD-3100 5 mg/kg, CA1P 100 mg/kg; 4 hours or 24 hours post-treatment; FIG. 1. The protocol: Non-tumor bearing Balb/c mice (8-10 weeks old) were treated with one of the following agents: (i) 5 mg/kg of AMD-3100, a specific CXCR-4 antagonist; (ii) 100 mg/kg of CA1P, a VDA; or (iii) a combination of AMD-3100 and CA1P. At either 4 hours or 24 hours post-treatment, mice were bled from the retro-orbital sinus to evaluate levels of CEPs by flow cytometry.
(In general: In flow cytometry, cells or beads pass a laser one at a time.)

In experiment [1] the test system is MeWo human melanoma cells. The experiment is described as follows: MeWo melanoma tumors (500 mm^3) in nude mice: SDF-1/CXCR4 staining, necrosis, hypoxia, perfusion. The experiment is classed as in vivo. Particulars: day 4. The protocol:
MeWo human melanoma cells were implanted subdermally in nude mice. When tumors reached 500 mm^3, treatment with CA1P, AMD-3100 or the combination of the two drugs was initiated. CA1P was given as a single injection and AMD-3100 was given in a concentration of 5 mg/kg for 3 sequential days. On day 4, mice were sacrificed and tumors harvested for evaluation of the expression of human SDF-1 and mouse CXCR4, as well as tumor necrosis, hypoxia and vessel perfusion.
Longitudinal tumor sections were stained for either SDF-1 or mouse CXCR4 expression.
FIG. 2 provides a statistical quantification of the relative necrosis area in all tumors from treated and untreated mice. Hypoxic tumor area and perfused tumor area was also measured for all treated and untreated tumors using pimonidazole and Hoechst staining respectively (see FIG. 3).

For experiment [2], the system named is SDF-1. The experiment is described as follows: Plasma SDF-1 by ELISA in nude mice after VDA treatment. The experiment is classed as in vivo. To be noted: both tumor-free and 500 mm^3 MeWo tumor-bearing nude mice; 4 hours after treatment. As for the experimental part:
To investigate the possibility that systemic induction of SDF-1 is involved in the acute mobilization of CEPs by VDA treatment, plasma from non-tumor or 500 mm^3 MeWo human melanoma bearing nude mice obtained 4 hours after treatment with CA1P was analyzed for human and mouse SDF-1 using specific ELISAs. From this analysis, it was determined that an acute 2 fold increase in SDF-1 occurs in both tumor-free and tumor-bearing nude mice following CA1P treatment. […] Thus, there is a rapid host proangiogenic reaction in response to VDA treatment similar to that observed in mice.
Background: An ELISA detects its analyte on a solid surface through an enzyme-linked reagent.

Experiment [3] concerns Lewis-Lung Carcinoma (LLC) cells. The experiment is described as follows: Lewis-Lung Carcinoma tumors in irradiated mice transplanted with GFP+ bone marrow: necrosis and bone marrow cell incorporation. The class given is in vivo. Particulars: LLC tumors in C57Bl mice with GFP+ bone marrow; day 4. The protocol:
To assess the incorporation of bone marrow proangiogenic cells to the tumor site, Lewis-Lung Carcinoma (LLC) cells were implanted into the flanks of lethally irradiated C57Bl mice that were previously transplanted with GFP+bone marrow tagged cells. When tumors reached 500 mm^3, treatment with CA1P, AMD-3100 or the combination of the two was initiated. AMD-3100 was given in a concentration of 5 mg/kg for 3 sequential days. On day 4, mice were sacrificed and tumors removed for the evaluation of bone marrow derived cell (GFP+ cells) invasion and incorporation into tumor blood vessels (CD31+ cells). Tumors were also evaluated for necrosis by green fluorescence, as necrotic tissue is auto-fluorescent under GFP (fluorescent) channel.

For experiment [4], the system named is SDF-1. The experiment is described as follows: Clinical data from cancer patients with advanced solid tumors treated with a VDA. The class given is in vivo, human. Particulars: 12 cancer patients with advanced solid tumors; 4 hours after treatment.
The mark [5] stands for this setting: MeWo tumors, CA1P single injection, AMD-3100 5 mg/kg for 3 sequential days.

Molecules are shown by their SMILES.

On to `c1cc(CN2CCCNCCNCCCNCC2)ccc1CN1CCCNCCNCCCNCC1` [AMD-3100, 1,1′-[1,4-phenylenebis(methylene)]-bis-1,4,8,11-tetra-azacyclotetradecane], for which the “CEP levels in peripheral blood” value in the experiment with CEPs was “rapid and significant increases”.
`COc1cc(/C=C\c2ccc(OC)c(OP(=O)(O)O)c2OP(=O)(O)O)cc(OC)c1OC` [CA1P, combretastatin A-1 diphosphate]: in experiment [1] (MeWo tumor sections), the “human SDF-1 levels in tumors” value was “upregulation” and the “invasion of mouse CXCR4+ cells to the tumor site” value is “invasion of mouse CXCR4+ cells to the tumor site”. For the same compound, in experiment [1] (setting [5]), the “tumor hypoxia (pimonidazole staining)” value is listed as roughly 12%, the “tumor necrosis (area of total tumor area)” value is recorded as roughly 30% and the “tumor perfusion (Hoechst staining)” value is reported as roughly 7%. Moreover, the “increase in plasma SDF-1” value in the experiment with SDF-1 [2] is 2 fold. In addition, the “CEP levels in peripheral blood” value in the experiment on CEPs is “rapid and significant increases”. The “bone marrow derived (GFP+) cell homing to tumor site and incorporation into tumor blood vessels (CD31+)” value in experiment [3] is “recruits bone marrow derived proangiogenic cells to tumors”.
Consider `COc1ccc(/C=C\c2cc(OC)c(OC)c(OC)c2)cc1OP(=O)(O)O` [CA4P, combretastatin A-4 phosphate], for which, in the experiment with SDF-1 [4], the “circulating SDF-1 plasma levels” value is reported as “substantially increased”; the “number of CD133 and CD34 positive cells” value was “substantially increased”.
